Measured values published in patent US8389501B2, “Anticancer compound” (priority 2011, dated 2013).
Like-named read-outs stand apart in the source and are kept apart here.

Assays:
[1] = system: human lung cancer cell line (NCI-H460); experiment: Sulforhodamine B (SRB) growth inhibition assay; type: cell-based; settings: for GI50: Homo sapiens
Method: The sulforhodamine B (SRB) protein-staining assay was employed for measurement of in vitro growth inhibition and cytotoxicity (21) The appropriate cell density (cells/well) of NCI-H460 cells (1×10^4) was added in 96-well plates. The cell density used was dependent on the doubling time of the cell line leading to the formation of monolayer. After 24 h incubation, different doses of Compounds 1-3 were added and incubated for further 48 h. This was followed by fixation of cells with ice-cold trichloroacetic acid (50 μl, 50%) at room temperature for 30 min. The plates were carefully washed five times with distilled water, and left for overnight drying in air. Sulforhodamine B dye (100 μl, 0.4% in 1% acetic acid) was introduced in each well and after 30 min residual dye was removed using acetic acid (1%) and air-dried overnight. The bound SRB dye was solubilized in Tris-base solution (100 μl, 10 mM) with gentle shaking on a plate-shaker for 5 min prior to optical density (OD) measurements at 545 nm in a plate reader. Drug concentrations causing growth inhibition (GI50) of 50% cells were calculated from dose response curves and total growth inhibition of Compound 2 was also evaluated.

[2] = system: IL-2 production; experiment: IL-2 cytokine production by PHA activated peripheral blood mononuclear cells (ELISA); type: cell-based, human
Method: (§1) FIG. 2: Effect of Compounds 1-3 on phytohemagglutinin (PHA) T-cell proliferation and production. (2A) The bar graph represents effects of various concentrations of the test Compounds 1-3 after 72 h incubation with peripheral blood mononuclear cells at 37° C. Effect of compounds on T-cell proliferation response is compared with non-proliferated […] cells. The bar graph (2B) represents effects of various concentrations of the test Compounds 1-3 on production of IL-2 compared with (+ve) and without (−ve) PHA induced IL-2 production. Each bar represents the mean value of triplicate reading±SD.
IL-2 cytokine was produce from peripheral blood mononuclear cells (PBMC). IL-2 cytokine production by PHA activated cells in the presence or absence of test compounds was studied by ELISA using the human cytokine kit (Diaclone, Besancon Cedex France). Briefly, freshly prepared mononuclear cells (10^5/well) were cultured in 96-well microtiter flat bottom plate in the presence or absence of 5 μg/mL PHA. Four different concentrations (10.33-331.13 μM/mL) of compounds, along with PHA, were used in this assay. The culture plate was incubated at 37° C. for 18 h. Then the supernatant was collected and analyzed for IL-2 cytokine production following kit manufacturer instructions.

[3] = system: isolated polymorphoneutrophils (PMNs); experiment: Oxidative burst, luminol-enhanced chemiluminescence, isolated PMNs; type: cell-based, human; settings: for IC50: Homo sapiens, isolated PMNs, opsonized zymosan-A, luminol
Method: (§2) In addition to that, effects of these compounds on T-cells proliferation were also evaluated; investigating their (Compounds 2 and 3) ability to modulate PHA activated T-cell proliferation response and production of IL-2 cytokine.
(§3) Heparinized blood was obtained by vein puncture aseptically from healthy volunteers (25-38 years age). The buffy coat containing PMNs was collected by dextran sedimentation and the cells were isolated after the LSM density gradient centrifugation from the tube base. Cells were washed twice and suspended in Hank's Balance Salt Solution (Ca^2+ and Mg^2+ free) (HBSS^−−), pH 7.4. Neutrophils were purified from RBCs contamination using hypotonic solution. Cells were adjusted to their required concentration using Hank's Balance Salt Solution containing Ca^2+ and Mg^2+ (HBSS^++).
(§4) Luminol-enhanced chemiluminescence assay was performed as described by Helfand et al. (17), and Haklar et al. (18) with some modifications. Briefly, 25 μL diluted whole blood (1:200 dilution in sterile HBSS^++) or 25 μL of PMNs (1×10^6) cells were incubated with 25 μL of serially diluted compounds with concentration ranges between 3.2-50 mg/mL. Tests were performed in white 96-well plates, which were incubated at 37° C. for […] in the thermostated chamber of the luminometer. Opsonized zymosan-A, 25 μL, followed by 25 μL luminol (7×10^−5 M) along with HBSS^++ was added to each well to obtain a 100 μL volume/well. Wells received HBSS^++, and cells but no compounds were used as a negative control. Chemiluminescence peaks were recorded with the Luminometer. Results were monitored as chemiluminescence relative light units (RLU) with peak and total integral values.

[4] = system: whole blood phagocytes; experiment: Oxidative burst, luminol-enhanced chemiluminescence, whole blood; type: cell-based, human; settings: for IC50: Homo sapiens, diluted whole blood, opsonized zymosan-A, luminol
Method: as §2, §3, §4

[5] = system: PHA-activated T-cell proliferation; experiment: PHA-activated T-cell proliferation assay (3H-thymidine incorporation); type: cell-based, human; settings: for IC50: Homo sapiens, T-cell, PHA 5 μg/mL, 72 hours incubation; for effect on T-cell proliferation (in words): PHA-activated
Method: as §1
The T-cell proliferation assay was performed as described by Nielson et al. (19). In this assay, isolated lymphocytes were stimulated by adding the phytohemagglutinin (PHA) in culture. The rate of proliferation and survival was measured by radiolabelled thymidine incorporation method. The lymphocytes were isolated as described by Boyum (20). A 50 μL of cell suspension (10^6/mL) was added to each well of a 96-well round bottom tissue culture plate. 50 μL of PHA was added in each well from the working solution (20 μg/mL) to have final concentration 5 μg/mL. The final volume was adjusted to 200 μL in each well by adding complete RPMI media. The plates were incubated at 37° C. for 72 hours (90% humidity, 5% CO2/air). Methyl-^3H thymidine (Amersham Pharmacia Biotech) 0.5 μCi was added in each well and incubated for further 18 hours. Cells were harvested on a filter mat (Type G-7) using cell harvester (INOTECH IH-280, Switzerland) and the radioactivity (CPM) was measured using a β-scintillation counter (LS 6500, Beckman Coulter, USA). (FIG. 2A)

[6] = Homo sapiens, PBMC, 18 h, PHA-activated PBMC, 18 h, ELISA, read-out: IC50 (μM) IL-2

SMILES	anticancer activity against NCI-H460 cell line (in words) [1]	GI50 ([1]; NCI-H460, 48 h, SRB) [µM]	TGI (μM) ([1]; NCI-H460, 48 h, SRB)	IC50 [2, 6] [µM]	effect on IL-2 production (in words) ([2]; PHA-activated PBMC)	IC50 [3] [µM]	IC50 [4] [µM]	IC50 [5] [µM]	effect on T-cell proliferation (in words) [5]	TGI ([1]; NCI-H460, 48 h, SRB) [µM]	IC50 ([2]; Homo sapiens, PBMC, FIG. 2, read-out: IL-2 production IC50 (unit inferred)) [µM]	effect on reactive oxygen species (ROS) production, isolated neutrophils (in words) [3]	effect on reactive oxygen species (ROS) production, whole blood phagocytes (in words) [4]	growth inhibition of cancer cells at 100 μM (in words) ([1]; NCI-H460, 100 μM)	IC50 ([2]; PHA-activated PBMC, 18 h, ELISA, read-out: IC50 (μM) IL-2) [µM]
C[C@]12C=CC(=O)C=C1CC[C@@H]1[C@@H]2CC[C@@]2(C)[C@H]1CC[C@]2(C)O [Compound 1, dianabol, reference compound]	showed anticancer activity	28.3 ± 2.72	ND (ND: Values could not be determined indicates <50% inhibition of cell growth at maximum dose (100 μM) tested.)	> 167	did not show any significant effect	> 167	> 333	> 167	did not show any significant effect						
C[C@]12C=CC(=O)C[C@@H]1CC[C@@H]1[C@@H]2CC[C@@]2(C)[C@H]1CC[C@]2(C)O [Compound 2, 17β-hydroxy-17α-methyl-5α-androst-1-en-3-one]	showed anticancer activity	22.5 ± 4.15		16.9 ± 1.32		> 166	> 331	< 10.3		60 ± 9.2	16.9 ± 1.32	did not result in any significant effect	did not result in any significant effect		
C[C@]12CCC(=O)C[C@@H]1CC[C@@H]1[C@@H]2CC[C@@]2(C)[C@H]1CC[C@]2(C)O [Compound 3, 17β-hydroxy-17α-methyl-5α-androstan-3-one]	non-active	> 100	ND (ND: Values could not be determined indicates <50% inhibition of cell growth at maximum dose (100 μM) tested.)	49.3 ± 1.32	moderate inhibitory activity	> 164	> 329	42.1	moderate inhibitory activity			did not result in any significant effect	did not result in any significant effect	not able to inhibit considerable growth of cancer cells	49.3 ± 1.32
COc1cccc2c1C(=O)c1c(O)c3c(c(O)c1C2=O)C[C@@](O)(C(=O)CO)C[C@@H]3O[C@H]1C[C@H](N)[C@H](O)[C@H](C)O1 [doxorubicin, reference compound]		0.08 ± 0.02													
